Laboratory results published in PubChem BioAssay AID330 (DTP/NCI, 2004).
Where “and” joins values, the source holds several entries; their conditions need not be identical. Equal values may be shown once. Inconclusive results and toxic doses are left out. How the source made its calls: active means survival T/C of 150% or more; inactive means T/C below 125% in these data.

Test system: P388 leukemia ip, CD2F1 mice, survival T/C
Test: NCI In Vivo Anticancer Drug Screen. Data for tumor model P388 Leukemia (intraperitoneal) in CD2F1 (CDF1) mice
Conditions: endpoint: median survival time, higher = longer survival
Method in brief: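 Mice carrying the transplanted tumor received test compound or vehicle. Survival was recorded in each group, and the value is the treated-group measurement divided by that of the vehicle-treated control group.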

[1] = dose: 50.0 mg/kg/injection, schedule: Q01DX005 (ip), vehicle: saline with Tween-80
[2] = dose: 100.0 mg/kg/injection, schedule: Q01DX005 (ip), vehicle: saline with Tween-80
[3] = dose: 200.0 mg/kg/injection, schedule: Q01DX005 (ip), vehicle: saline with Tween-80
[4] = dose: 50.0 mg/kg/injection, schedule: Q01DX005 (ip), vehicle: Klucel (hydroxypropylcellulose) (HPC)
[5] = dose: 100.0 mg/kg/injection, schedule: Q01DX005 (ip), vehicle: Klucel (hydroxypropylcellulose) (HPC)
[6] = dose: 200.0 mg/kg/injection, schedule: Q01DX005 (ip), vehicle: Klucel (hydroxypropylcellulose) (HPC)
[7] = dose: 50.0 mg/kg/injection, schedule: Q01DX009 (ip), vehicle: Klucel (hydroxypropylcellulose) (HPC)
[8] = dose: 100.0 mg/kg/injection, schedule: Q01DX009 (ip), vehicle: Klucel (hydroxypropylcellulose) (HPC)
[9] = dose: 12.5 mg/kg/injection, schedule: Q01DX005 (ip), vehicle: saline
[10] = dose: 25.0 mg/kg/injection, schedule: Q01DX005 (ip), vehicle: saline
[11] = dose: 1.56 mg/kg/injection, schedule: Q01DX009 (ip), vehicle: saline

Measured: T/C

O=C1NC(=O)C2(OC3c4ccccc4C=NN3C3=C2C(=O)CC3)C(=O)N1 (stereo not given)
inactive: dose: 100.0 mg/kg/injection, schedule: Q01DX001 (ip), vehicle: saline with Tween-80 101 % of control | dose: 200.0 mg/kg/injection, schedule: Q01DX001 (ip), vehicle: saline with Tween-80 100 % of control | dose: 400.0 mg/kg/injection, schedule: Q01DX001 (ip), vehicle: saline with Tween-80 104 % of control

COc1ccc2nc3cc(Cl)ccc3c(NCCCCN3CCCC3)c2n1
inactive: dose: 12.5 mg/kg/injection, schedule: Q01DX009 (ip), vehicle: water 101 % of control | dose: 25.0 mg/kg/injection, schedule: Q01DX009 (ip), vehicle: water 105 % of control

CCOC(=O)N1C=CC(c2ccccc2)=CC2ON=C(c3c(C)cc(C)cc3C)N21 (stereo not given)
inactive: dose: 50.0 mg/kg/injection, schedule: Q01DX009 (ip), vehicle: saline 106 % of control | dose: 100.0 mg/kg/injection, schedule: Q01DX009 (ip), vehicle: saline 108 % of control | dose: 200.0 mg/kg/injection, schedule: Q01DX009 (ip), vehicle: saline 99 % of control

CCN(CC)CCOC(C)(C)C#CC(C)(C)O
inactive: [1] 100 % of control | [2] 99 % of control | [3] 99 % of control

COc1ccc(Cc2cc3c(cc2O)OCO3)cc1
inactive: dose: 2.5 mg/kg/injection, schedule: Q01DX009 (ip), vehicle: saline with Tween-80 99 % of control | dose: 5.0 mg/kg/injection, schedule: Q01DX009 (ip), vehicle: saline with Tween-80 101 % of control | dose: 10.0 mg/kg/injection, schedule: Q01DX009 (ip), vehicle: saline with Tween-80 101 % of control | dose: 15.0 mg/kg/injection, schedule: Q01DX005 (ip), vehicle: saline with Tween-80 107 % of control | dose: 31.0 mg/kg/injection, schedule: Q01DX005 (ip), vehicle: saline with Tween-80 102 % of control | dose: 62.5 mg/kg/injection, schedule: Q01DX005 (ip), vehicle: saline with Tween-80 106 % of control | dose: 125.0 mg/kg/injection, schedule: Q01DX005 (ip), vehicle: saline with Tween-80 100 % of control | dose: 250.0 mg/kg/injection, schedule: Q01DX005 (ip), vehicle: saline with Tween-80 102 % of control

O=c1c2c(oc3cc(OCC4CO4)ccc13)CCC2 (stereo not given)
inactive: [4] 93 % of control | [5] 88 % of control | [6] 95 % of control

Cc1cc(C)[n+](C)c2cc3ccccc3cc12
inactive: dose: 12.5 mg/kg/injection, schedule: Q01DX005 (ip), vehicle: saline with Tween-80 115 % of control | [1] 109 % of control

O=[N+]([O-])c1ccc(/C=C/C=C/c2ccc(S(=O)(=O)F)cc2)c(Cl)c1
inactive: [7] 93 % of control | [8] 93 % of control | dose: 200.0 mg/kg/injection, schedule: Q01DX009 (ip), vehicle: Klucel (hydroxypropylcellulose) (HPC) 97 % of control

NC(Cc1ccc[se]1)C(=O)O (stereo not given)
inactive: dose: 6.25 mg/kg/injection, schedule: Q01DX005 (ip), vehicle: saline 105 % of control | [9] 99 % of control | dose: 25.0 mg/kg/injection, schedule: Q01DX005 (ip), vehicle: saline with Tween-80 103 % of control | [10] 97 % of control | [1] 94 % of control

Cc1cc2c(cc1C)C(=O)C(CN1CCCCC1)CO2 (stereo not given)
inactive: dose: 100.0 mg/kg/injection, schedule: Q01DX001 (ip), vehicle: saline 107 % of control | dose: 200.0 mg/kg/injection, schedule: Q01DX001 (ip), vehicle: saline 104 % of control

COc1cc2c(cc1OC)C13CC[N+]4(C)CC5=CCOC6CC(=O)N2C1C6C5CC34[O-] (stereo not given)
inactive: dose: 60.0 mg/kg/injection, schedule: Q01DX005 (ip), vehicle: Klucel (hydroxypropylcellulose) (HPC) 99 % of control | dose: 120.0 mg/kg/injection, schedule: Q01DX005 (ip), vehicle: Klucel (hydroxypropylcellulose) (HPC) 99 % of control | dose: 240.0 mg/kg/injection, schedule: Q01DX005 (ip), vehicle: Klucel (hydroxypropylcellulose) (HPC) 111 % of control

COc1ccc(CSC(=S)Nc2ccc(Br)c(C)c2)cc1
inactive: dose: 50.0 mg/kg/injection, schedule: Q01DX009 (ip), vehicle: suspension in saline 96 % of control | dose: 100.0 mg/kg/injection, schedule: Q01DX009 (ip), vehicle: suspension in saline 101 % of control | dose: 200.0 mg/kg/injection, schedule: Q01DX009 (ip), vehicle: suspension in saline 109 % of control

O=C(Nc1ccc(Sc2ccc(N=Nc3c(O)c(S(=O)(=O)O)cc4cc(S(=O)(=O)O)ccc34)cc2)cc1)c1ccc(N=Nc2cc(S(=O)(=O)O)c3ccccc3c2O)cc1
inactive: [1] 98 % of control | [2] 102 % of control | [3] 98 % of control

CN(CCNN1CCCC1)Cc1ccccc1Cl
inactive: [9] 102 % of control | [10] 105 % of control | dose: 50.0 mg/kg/injection, schedule: Q01DX005 (ip), vehicle: saline 102 % of control and 108 % of control | dose: 100.0 mg/kg/injection, schedule: Q01DX005 (ip), vehicle: saline 103 % of control

CN1CCc2cc(O)c(O)cc2C1
inactive: dose: 100.0 mg/kg/injection, schedule: Q04DX003 (ip), vehicle: saline 98 % of control | dose: 200.0 mg/kg/injection, schedule: Q04DX003 (ip), vehicle: saline 103 % of control

C=CC[P+](Cc1cccc(C)c1)(c1ccccc1)c1ccccc1
inactive: dose: 0.78 mg/kg/injection, schedule: Q01DX009 (ip), vehicle: saline 99 % of control | [11] 111 % of control | dose: 3.13 mg/kg/injection, schedule: Q01DX009 (ip), vehicle: saline 104 % of control

CCCCCCC1NC(CCCCCC)N2C(CCCCCC)N12 (stereo not given)
inactive: dose: 100.0 mg/kg/injection, schedule: Q04DX003 (ip), vehicle: Klucel (hydroxypropylcellulose) (HPC) 101 % of control | dose: 200.0 mg/kg/injection, schedule: Q04DX003 (ip), vehicle: Klucel (hydroxypropylcellulose) (HPC) 97 % of control | dose: 400.0 mg/kg/injection, schedule: Q04DX003 (ip), vehicle: Klucel (hydroxypropylcellulose) (HPC) 93 % of control

CCOC(=O)Cn1cnc2cc(C)c(C)cc21
inactive: dose: 100.0 mg/kg/injection, schedule: Q04DX003 (ip), vehicle: saline with Tween-80 90 % of control | dose: 200.0 mg/kg/injection, schedule: Q04DX003 (ip), vehicle: saline with Tween-80 100 % of control | dose: 400.0 mg/kg/injection, schedule: Q04DX003 (ip), vehicle: saline with Tween-80 90 % of control

COc1cc(C2c3cc4c(cc3OC3(O)COC(=O)C23)OCO4)cc(OC)c1OC (stereo not given)
inactive: dose: 60.0 mg/kg/injection, schedule: Q01DX005 (ip), vehicle: saline with Tween-80 88 % of control | dose: 120.0 mg/kg/injection, schedule: Q01DX005 (ip), vehicle: saline with Tween-80 91 % of control | dose: 240.0 mg/kg/injection, schedule: Q01DX005 (ip), vehicle: saline with Tween-80 86 % of control

CCCCCC(CN(C)C)C(=O)/C=C/c1ccc(Cl)c(Cl)c1 (stereo not given)
inactive: [11] 100 % of control | dose: 3.12 mg/kg/injection, schedule: Q01DX009 (ip), vehicle: saline 100 % of control | dose: 6.25 mg/kg/injection, schedule: Q01DX009 (ip), vehicle: saline 102 % of control | dose: 12.5 mg/kg/injection, schedule: Q01DX009 (ip), vehicle: saline 109 % of control | dose: 25.0 mg/kg/injection, schedule: Q01DX009 (ip), vehicle: saline 92 % of control

O=C1c2ccccc2C(=O)C1C(=Nc1ccc(F)cc1)c1ccccc1
inactive: [4] 103 % of control | [5] 103 % of control | [6] 99 % of control

CC(=O)N=C1C=C(NC(C)=O)C(=O)c2ccccc21
inactive: dose: 6.25 mg/kg/injection, schedule: Q01DX009 (ip), vehicle: Klucel (hydroxypropylcellulose) (HPC) 103 % of control | dose: 12.5 mg/kg/injection, schedule: Q01DX009 (ip), vehicle: Klucel (hydroxypropylcellulose) (HPC) 99 % of control and 100 % of control and 116 % of control | dose: 25.0 mg/kg/injection, schedule: Q01DX009 (ip), vehicle: Klucel (hydroxypropylcellulose) (HPC) 100 % of control and 105 % of control and 124 % of control | [7] 112 % of control

CN(C)NC(=S)Sc1ccccc1
inactive: [7] 100 % of control | [8] 99 % of control

O=C1Nc2ccccc2C12Nc1ccccc1S2 (stereo not given)
inactive: [1] 100 % of control | [2] 101 % of control | [3] 110 % of control

O=[N+]([O-])C(Br)(CO)CCC(Br)(CO)[N+](=O)[O-] (stereo not given)
inactive: dose: 6.25 mg/kg/injection, schedule: Q01DX001 (ip), vehicle: Klucel (hydroxypropylcellulose) (HPC) 111 % of control | dose: 12.5 mg/kg/injection, schedule: Q01DX001 (ip), vehicle: Klucel (hydroxypropylcellulose) (HPC) 104 % of control | dose: 25.0 mg/kg/injection, schedule: Q01DX001 (ip), vehicle: Klucel (hydroxypropylcellulose) (HPC) 107 % of control

OCC1=C(CO)CC2=C(CC=CC2)C1
inactive: [4] 100 % of control | [5] 99 % of control | [6] 97 % of control

Cn1cc(N)c2ccccc2c1=O
inactive: [1] 103 % of control
